Test results taken from US20240327463A1, “ANTIBACTERIAL PRODUCTS” (priority 2017, published 2024).
Converted amounts (≈) assume the structure as drawn. Bridge positions count the residues as written; N and C are the ends. Square brackets hold non-standard residues; d marks the D form. Peptide text beside a SMILES is read from it. ξ: configuration not given here. dNMeF = CN[C@H](Cc1ccccc1)C(=O)O; Ile(3ξ) = CCC(C)[C@H](N)C(=O)O

Assays:
MRSA 1003 = format: cell-based, Staphylococcus aureus
Procedure: (§1) Bacteria were grown on Mueller Hinton broth (oxoid). All incubations were at 37° C. Dilutions were carried out using Mueller Hinton. […] This process was repeated up to well 11. […] This was repeated three times. […] Results are tabulated in the Examples.

VRE 1004 = format: cell-based, Enterococcus faecalis
Procedure: as §1

VRE 1008 = format: cell-based, Enterococcus faecalis
Procedure: as §1

VRE 1001 = format: cell-based, Enterococcus faecalis
Procedure: as §1

VRE 1002 = format: cell-based, Enterococcus faecalis
Procedure: as §1

[1] = tested on: Bacillus Subtilis ATCC 6633; format: cell-based
Procedure: as §1

[2] = tested on: Bacillus Cereus ATCC 11788; format: cell-based
Procedure: as §1

[3] = tested on: Staphylococcus saprophyticus ATCC 49907; format: cell-based; details: ATCC 49907
Procedure: as §1

[4] = tested on: Staphylococcus saprophyticus ATCC 15305; format: cell-based; details: ATCC 15305
Procedure: as §1

[5] = tested on: Staphylococcus saprophyticus ATCC 49453; format: cell-based; details: ATCC 49453
Procedure: as §1

[6] = tested on: Staphylococcus saprophyticus ATCC BAA 750; format: cell-based; details: ATCC BAA 750
Procedure: as §1

SE12228 = format: cell-based
Procedure: as §1

[7] = tested on: Staphylococcus aureus ATCC 29213; test: microbe, parasite or virus in culture; details: ATCC 29213
Procedure: (§2) For MIC testing all peptides were dissolved in DMSO (according to the method of L. L. Ling, et al., Nature 2015, 517, 455-459). Bacteria were grown on Mueller Hinton broth (oxoid). All incubations were at 37° C. Dilutions were carried out using Mueller Hinton. 100 μl of autoclaved Mueller Hinton broth was added to wells 2-12 on a 96-well plate. 200 μl of the peptide was added to well one at a concentration of 512 μg/ml. 100 μl of peptide in well one was taken up and pipetted into well two. The mixture was then mixed via pipetting before 100 μl was taken up and pipetted into well three. This process was repeated up to well 11. […] This was repeated three times. The 96-well plates were then incubated for 24 hours. The MIC was determined to be the lowest concentration at which there was no growth visible.

MRSA ATCC 700699 = test: microbe, parasite or virus in culture; details: ATCC 700699
Procedure: as §2

MRSA DM21455 (eye) = test: microbe, parasite or virus in culture; details: DM21455 (eye)
Procedure: as §2

VRE ATCC 700802 = test: microbe, parasite or virus in culture; details: ATCC 700802
Procedure: as §2

VRE ATCC 29212 = test: microbe, parasite or virus in culture; details: ATCC 29212
Procedure: as §2

MRSA DR 42412 (sputum) = test: microbe, parasite or virus in culture; details: DR 42412 (sputum)
Procedure: as §2

MRSA ATCC 33591 = details: for MIC (MRSA) / MIC (MRSA*): ATCC 33591
Procedure: as §2

M. smegmatis ATCC 607 = test: microbe, parasite or virus in culture; details: ATCC 607
Procedure: as §2

S. aureus ATCC 29213 = test: Mice-eye model of S. aureus keratitis; format: in vivo; details: for mean corneal thickness: 0.3% topical, baseline 93.8±2.9 μm
Text: The in vivo efficacy of Compound 26 in the mice-eye model of S. aureus keratitis was examined. S. aureus is one of the major etiological agents for bacterial keratitis and the toxic secretions produced by this microorganism have been implicated in corneal melt, leading to significant morbidity and vision loss. […] A total of 8 doses were applied and the progression of the infection was monitored by slit lamp examination, anterior segment optical coherent tomography (AS-OCT) and microbiological enumeration of the bacterial bioburden. Mice cornea treated with PBS had severe clinical presentation indicated by chemosis, significant presence of hypopyon like materials and corneal infiltrates (FIG. 4).

MIC [7] [µg/mL]	MIC (MRSA ATCC 700699) [µg/mL]	MIC (MRSA DM21455 (eye)) [µg/mL]	MIC (VRE ATCC 700802) [µg/mL]	MIC (VRE ATCC 29212) [µg/mL]	MIC (MRSA DR 42412 (sputum)) [µg/mL]	SMILES	MIC (MRSA 1003) [µg/mL]	MIC (VRE 1004) [µg/mL]	MIC (VRE 1008) [µg/mL]	MIC (VRE 1001) [µg/mL]	MIC (VRE 1002) [µg/mL]	MIC [1] [µg/mL]	MIC [2] [µg/mL]	MIC [3] [µg/mL]	MIC [4] [µg/mL]	MIC [5] [µg/mL]	MIC [6] [µg/mL]	MIC (SE12228) [µg/mL]	MIC (MRSA) (MRSA ATCC 33591) [µg/mL]	other results
0.0625 (≈ 0.0508 µM)	0.25 (≈ 0.203 µM)	0.03125 (≈ 0.0254 µM)	0.25 (≈ 0.203 µM)	0.25 (≈ 0.203 µM)	<0.0625	CCC(C)[C@@H]1NC(=O)[C@H](C)NC(=O)[C@H](NC(=O)[C@H](CO)NC(=O)[C@@H](NC(=O)[C@H](NC(=O)[C@@H](CCCNC(=N)N)NC(=O)[C@H](CO)NC(=O)[C@@H](NC(=O)[C@@H](Cc2ccccc2)NC)[C@@H](C)CC)[C@H](C)CC)[C@@H](C)CC)[C@H](C)OC(=O)[C@H]([C@@H](C)CC)NC1=O (stereo partly drawn) [Compound 33, D-Arg4-Ile10-teixobactin]	<0.0625	0.5 (≈ 0.407 µM)	0.5 (≈ 0.407 µM)	0.5 (≈ 0.407 µM)	1 (≈ 0.813 µM)	<0.0625	<0.0625	<0.0625	<0.0625	<0.0625	<0.0625	<0.0625	0.125 (≈ 0.102 µM)	
0.25 (≈ 0.211 µM)	1 (≈ 0.842 µM)	0.25 (≈ 0.211 µM)	0.5 (≈ 0.421 µM)	0.5 (≈ 0.421 µM)	0.5 (≈ 0.421 µM)	CC[C@@H](C)[C@@H](NC(=O)[C@@H](CCC(N)=O)NC(=O)[C@H](CO)NC(=O)[C@@H](NC(=O)[C@@H](Cc1ccccc1)NC)[C@@H](C)CC)C(=O)N[C@H](C(=O)N[C@@H](CO)C(=O)N[C@H]1C(=O)N[C@@H](C)C(=O)N[C@@H](C(C)C)C(=O)N[C@@H]([C@@H](C)CC)C(=O)O[C@H]1C)[C@@H](C)CC [Compound 17]														MBC [7]: 1 µg/mL (≈ 0.842 µM); MBC (MRSA ATCC 700699): 4 µg/mL (≈ 3.37 µM); MIC (M. smegmatis ATCC 607): 1 µg/mL (≈ 0.842 µM); MBC (MRSA DM21455 (eye)): 2 µg/mL (≈ 1.68 µM); MBC (MRSA DR 42412 (sputum)): 4 µg/mL (≈ 3.37 µM); MIC (MRSA*) (MRSA ATCC 33591): 0.5 µg/mL (≈ 0.421 µM)
≤0.0625	0.25 (≈ 0.208 µM)	≤0.0625	≤0.0625	≤0.0625	≤0.0625	CC[C@@H](C)[C@@H](NC(=O)[C@@H](CCC(N)=O)NC(=O)[C@H](CO)NC(=O)[C@@H](NC(=O)[C@@H](Cc1ccccc1)NC)[C@@H](C)CC)C(=O)N[C@H](C(=O)N[C@@H](CO)C(=O)N[C@H]1C(=O)N[C@@H](C)C(=O)N[C@@H]([C@@H](C)CC)C(=O)N[C@@H]([C@@H](C)CC)C(=O)O[C@H]1C)[C@@H](C)CC [Compound 18, Ile10-teixobactin]														MBC [7]: 0.125 µg/mL (≈ 0.104 µM); MBC (MRSA ATCC 700699): 1 µg/mL (≈ 0.832 µM); MIC (M. smegmatis ATCC 607): 0.5 µg/mL (≈ 0.416 µM); MBC (MRSA DM21455 (eye)): 0.125 µg/mL (≈ 0.104 µM); MBC (MRSA DR 42412 (sputum)): ≤0.0625 µg/mL; MIC (MRSA*) (MRSA ATCC 33591): 0.25 µg/mL (≈ 0.208 µM)
1 (≈ 0.738 µM)	1 (≈ 0.738 µM)	1 (≈ 0.738 µM)	1 (≈ 0.738 µM)	1 (≈ 0.738 µM)	0.25 (≈ 0.184 µM)	CC[C@@H](C)[C@@H](NC(=O)[C@@H](CCC(N)=O)NC(=O)[C@H](CCCNC(=N)N)NC(=O)[C@@H](NC(=O)[C@@H](Cc1ccccc1)NC)[C@@H](C)CC)C(=O)N[C@H](C(=O)N[C@@H](CO)C(=O)N[C@H]1C(=O)N[C@@H](CCCNC(=N)N)C(=O)N[C@@H](CC(C)C)C(=O)N[C@@H]([C@@H](C)CC)C(=O)O[C@H]1C)[C@@H](C)CC [Compound 29, Arg3-Arg9-Leu10-teixobactin] (H-[dNMeF]IR[dQ][dI]IS[dT]RLI; ester 8-C)	2 (≈ 1.48 µM)	0.5 (≈ 0.369 µM)	0.5 (≈ 0.369 µM)	0.5 (≈ 0.369 µM)	1 (≈ 0.738 µM)	<0.0625	1 (≈ 0.738 µM)	<0.0625	<0.0625	<0.0625	<0.0625	<0.0625		MIC against MRSA ATCC 33591 (MRSA ATCC 33591; MRSA ATCC 33591): 1 µg/mL (≈ 0.738 µM)
						COc1c(N2C[C@@H]3CCCN[C@@H]3C2)c(F)cc2c(=O)c(C(=O)O)cn(C3CC3)c12 [moxifloxacin, reference compound]														mean corneal thickness (S. aureus ATCC 29213; 24 h post treatment): 124.2±9.4 μm; mean corneal thickness (S. aureus ATCC 29213; 48 h post treatment): 140.3±10.3 μm; mean log10 CFU/tissue (S. aureus ATCC 29213; corneal tissues harvested after 8 dosages, ± standard error of the mean): 3.7±0.24 log10 CFU/tissue

SMILES	MIC [7] [µg/mL]	MIC (MRSA ATCC 700699) [µg/mL]	MIC (MRSA DM21455 (eye)) [µg/mL]	MIC (VRE ATCC 700802) [µg/mL]	MIC (VRE ATCC 29212) [µg/mL]	MIC (MRSA DR 42412 (sputum)) [µg/mL]	MIC (MRSA 1003) [µg/mL]	MIC (VRE 1004) [µg/mL]	MIC (VRE 1008) [µg/mL]	MIC (VRE 1001) [µg/mL]	MIC (VRE 1002) [µg/mL]	MIC [1] [µg/mL]	MIC [2] [µg/mL]	MIC [3] [µg/mL]	MIC [4] [µg/mL]	MIC [5] [µg/mL]	MIC [6] [µg/mL]	MIC (SE12228) [µg/mL]	MIC (MRSA) (MRSA ATCC 33591) [µg/mL]	other results
CC[C@@H](C)[C@@H](NC(=O)[C@@H](CCC(N)=O)NC(=O)[C@H](CCCNC(=N)N)NC(=O)[C@@H](NC(=O)[C@@H](Cc1ccccc1)NC)[C@@H](C)CC)C(=O)N[C@H](C(=O)N[C@@H](CO)C(=O)N[C@H]1C(=O)N[C@@H](C)C(=O)N[C@@H](CC(C)C)C(=O)N[C@@H]([C@@H](C)CC)C(=O)O[C@H]1C)[C@@H](C)CC [Compound 25, Arg3-Leu10-teixobactin] (H-[dNMeF]IR[dQ][dI]IS[dT]ALI; ester 8-C)	0.25 (≈ 0.197 µM)	0.5 (≈ 0.394 µM)	0.03125 (≈ 0.0246 µM)	0.5 (≈ 0.394 µM)	0.5 (≈ 0.394 µM)	<0.0625	<0.0625	<0.0625	0.125 (≈ 0.0984 µM)	0.25 (≈ 0.197 µM)	0.5 (≈ 0.394 µM)	<0.0625	<0.0625	<0.0625	<0.0625	<0.0625	<0.0625	<0.0625	0.125 (≈ 0.0984 µM)	
CCC(C)[C@@H]1NC(=O)[C@H](C)NC(=O)[C@H](NC(=O)[C@H](CO)NC(=O)[C@@H](NC(=O)[C@H](NC(=O)[C@@H](CCC(N)=O)NC(=O)[C@H](CCCNC(=N)N)NC(=O)[C@@H](NC(=O)[C@@H](Cc2ccccc2)NC)[C@@H](C)CC)[C@H](C)CC)[C@@H](C)CC)[C@H](C)OC(=O)[C@H]([C@@H](C)CC)NC1=O (stereo partly shown) [Compound 32, Arg3-Ile10-teixobactin] (H-[dNMeF]IR[dQ][dI]IS[dT]A[Ile(3ξ)]I; ester 8-C)	0.5 (≈ 0.394 µM)	1 (≈ 0.787 µM)	0.25 (≈ 0.197 µM)	1 (≈ 0.787 µM)	1 (≈ 0.787 µM)	0.125 (≈ 0.0984 µM)	0.125 (≈ 0.0984 µM)	1 (≈ 0.787 µM)	1 (≈ 0.787 µM)	1 (≈ 0.787 µM)	1 (≈ 0.787 µM)	<0.0625	0.125 (≈ 0.0984 µM)	<0.0625	<0.0625	<0.0625	<0.0625	<0.0625	0.25 (≈ 0.197 µM)	
